Test results from US6756210B2, “Linoleic acid diol and glucuronide conjugate levels as diagnostic markers of disorders of abnormal regulation of cytochrome P450 metabolism of unsaturated fatty acids” (The Regents of the University of California, priority 2001, dated 2004).
Several values for one entry are separate records, joined by “and”; a condition that tells them apart may be missing. Equal values may be shown once. Read-outs that look alike come from different tables or passages of the source.

Key:
[1] = test system: CYP epoxygenase or -hydroxylase; assay: Renal microsomal arachidonic acid metabolism (CYP epoxygenase, hydroxylase); assay type: biochemical, rat; set-up: dose or concentration left out as unconfirmed
Method: Renal microsomal arachidonic acid metabolism. Microsomes, cytosol, and S9 fractions were prepared from the renal cortex or outer medulla samples from a single animal as described previously (Kroetz, D. L. et al. Mol Pharmacol 52, 362-372 (1997), Su, P. et al. Am J Physiol 275, R426-438 (1998)). Reaction conditions for the in vitro determination of arachidonic acid epoxygenase activity, metabolite extraction and HPLC analysis were described in detail elsewhere (Su, P. et al. Am J Physiol 275, R426-438 (1998)).

WKY rats = assay: Systolic blood pressure in WKY rats (tail cuff); assay type: in vivo, rat; conditions: single 3 mg/kg dose
Description: (§1) Animals. Male SHR and WKY rats 3-13 wks of age were purchased from Charles River Laboratories (Wilmington, Mass.) and housed in a controlled environment with 12 hr light/dark cycles and fed standard laboratory chow for 3 days before euthanasia. All animal use was approved by the University of California San Francisco Committee on Animal Research and followed the National Institutes of Health guidenlines for the care and use of laboratory animals. For isolation of kidney subcellular fractions, rats were anesthetized with methoxyflurane, the abdominal cavities were opened, and the kidneys were perfused with ice-cold saline. Perfused kidneys were rapidly removed, the cortex and medulla dissected out and immersed in liquid nitrogen. All tissue was stored at −80° C. until preparation of microsomes. In some cases WKY and SHR rats were housed in metabolic cages for up to three days and urine was collected over triphenylphosphine in 24 hr intervals. The urine volume was noted and aliquots were stored at −80° C. prior to extraction and quantitation of DHETs and EETs. […] Systolic blood pressure was measured at room temperature by a photoelectric tail cuff system (Model 179, IITC, Inc., Woodland Hills, Calif.) for up to four days following the dose of inhibitor. Blood pressures are reported as the average of three separate readings over a 30 min period. […]

mEH = target: T1, mEH (Rattus norvegicus, UniProt P07687); conditions: previous studies, Morisseau 1999; cited from earlier work
T1 sequence (P07687 1-455): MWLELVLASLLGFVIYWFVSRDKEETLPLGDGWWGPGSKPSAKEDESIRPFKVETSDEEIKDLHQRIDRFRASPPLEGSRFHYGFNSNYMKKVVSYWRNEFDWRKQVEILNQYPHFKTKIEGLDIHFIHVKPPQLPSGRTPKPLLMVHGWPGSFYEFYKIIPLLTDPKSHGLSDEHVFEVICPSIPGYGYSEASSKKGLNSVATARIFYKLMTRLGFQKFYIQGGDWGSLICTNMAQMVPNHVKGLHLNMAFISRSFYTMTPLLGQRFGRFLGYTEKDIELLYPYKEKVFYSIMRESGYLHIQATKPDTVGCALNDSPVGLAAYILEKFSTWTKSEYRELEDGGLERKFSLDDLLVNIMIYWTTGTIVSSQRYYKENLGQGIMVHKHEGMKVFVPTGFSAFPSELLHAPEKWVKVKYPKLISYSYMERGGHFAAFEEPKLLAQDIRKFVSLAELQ

SHR = assay: Systolic blood pressure in SHR (tail cuff); assay type: in vivo, rat; conditions: 6 hr after single dose (3 mg/kg DCU or equimolar)
Description: as §1

recombinant rat mEH = target: T2, recombinant rat mEH (Rattus norvegicus, UniProt P07687); assay: Inhibition of recombinant rat mEH; assay type: biochemical
T2 sequence (P07687 1-455): T1 sequence (P07687 1-455)
Method: (§2) The micosomal enzyme plays a significant role in the metabolism of xenobiotics such as polyaromatic toxicants. Additionally, polymorphism studies have underlined a potential role of this enzyme in relation to several diseases, such as emphysema, spontaneous abortion and several forms of cancer. Inhibition of recombinant rat and human mEH can be obtained using primary ureas, amides, and amines. For example, elaidamide, has a K1 of 70 nM for recombinant rat mEH.

[2] = test system: insect cell culture expressing rat mEH; assay: Insect cell culture expressing rat mEH, toxicity of epoxide-containing xenobiotics; assay type: cell-based
Method: as §2

[3] = target: T3, recombinant mouse sEH (MsEH) (Mus musculus, UniProt P34914); assay: Inhibition of recombinant mouse sEH (MsEH); assay type: biochemical; conditions: MsEH 0.13 μM, read-out: Mouse sEH IC50
T3 sequence (P34914 1-554): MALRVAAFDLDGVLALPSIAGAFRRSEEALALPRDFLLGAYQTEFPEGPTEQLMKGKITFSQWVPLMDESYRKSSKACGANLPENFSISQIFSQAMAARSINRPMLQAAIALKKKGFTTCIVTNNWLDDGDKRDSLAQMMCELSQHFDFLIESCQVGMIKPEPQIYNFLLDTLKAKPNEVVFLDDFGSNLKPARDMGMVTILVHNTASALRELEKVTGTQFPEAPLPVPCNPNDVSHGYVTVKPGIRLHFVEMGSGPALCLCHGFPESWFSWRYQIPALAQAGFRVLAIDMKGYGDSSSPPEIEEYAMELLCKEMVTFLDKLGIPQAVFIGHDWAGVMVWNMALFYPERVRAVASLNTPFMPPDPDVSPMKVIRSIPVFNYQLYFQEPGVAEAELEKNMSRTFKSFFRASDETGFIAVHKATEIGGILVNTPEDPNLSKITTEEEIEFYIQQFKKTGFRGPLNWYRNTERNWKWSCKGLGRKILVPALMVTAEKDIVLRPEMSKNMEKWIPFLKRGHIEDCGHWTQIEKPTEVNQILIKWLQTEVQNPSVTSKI

Human sEH (HsEH) = target: T4, Human sEH (HsEH) (Homo sapiens, UniProt P34913); assay: Inhibition of recombinant human sEH (HsEH); assay type: biochemical; conditions: HsEH 0.26 μM
T4 sequence (P34913 1-555): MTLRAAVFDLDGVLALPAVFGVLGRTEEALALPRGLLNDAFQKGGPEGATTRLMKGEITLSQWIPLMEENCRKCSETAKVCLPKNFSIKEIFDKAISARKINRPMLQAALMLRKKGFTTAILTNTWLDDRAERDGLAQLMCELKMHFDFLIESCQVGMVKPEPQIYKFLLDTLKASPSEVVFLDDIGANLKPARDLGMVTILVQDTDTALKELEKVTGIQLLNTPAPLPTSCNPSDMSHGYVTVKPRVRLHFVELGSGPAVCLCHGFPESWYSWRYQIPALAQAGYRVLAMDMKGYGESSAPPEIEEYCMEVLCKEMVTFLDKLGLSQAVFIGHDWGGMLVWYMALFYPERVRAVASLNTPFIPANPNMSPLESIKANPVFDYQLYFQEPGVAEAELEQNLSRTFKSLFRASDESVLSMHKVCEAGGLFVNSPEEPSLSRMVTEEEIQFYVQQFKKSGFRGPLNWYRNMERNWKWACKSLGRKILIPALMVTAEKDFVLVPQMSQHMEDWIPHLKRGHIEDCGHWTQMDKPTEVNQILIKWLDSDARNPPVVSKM

IC50 ([3]; Table 1)	IC50 (Human sEH (HsEH); Table 1)	SMILES	also measured
–	–	O=C(NC1CCCCC1)NC1CCCCC1 [DCU, N,N′-dicyclohexylurea]	effect on CYP epoxygenase or -hydroxylase activity [1]: no effect; effect on blood pressure in WKY (WKY rats): unaffected; inhibition of mEH (mEH): does not inhibit mEH
–	–	CCCCCCCCCCCCNC(=O)NC1CCCCC1 [N-cyclohexyl-N′-dodecylurea]	decrease in systolic blood pressure (SHR): 12±2 mm Hg and 12 mm Hg
–	–	CCCCCCCC/C=C/CCCCCCCC(N)=O [elaidamide]	inhibition kinetics with mEH (recombinant rat mEH; non-covalent complex): apparent mix of competitive and non-competitive inhibition kinetics; Ki (recombinant rat mEH; read-out: K1 for recombinant rat mEH): 70 nM; effect on toxicity of epoxide-containing xenobiotics [2]: enhances the toxicity effects
500 ± 100 nM	15000 ± 3000 nM	CCCCCCCCCCCCNC(=O)NC(C)(C)CC [compound 562]	–
50 ± 100 nM	100 ± 10 nM	O=C(Nc1nnn[nH]1)NC1CCCCC1 [compound 533]	–
120 ± 10 nM	220 ± 20 nM	C=C(C)CCOC(=O)NC1CCCCC1 [compound 277]	–
60 ± 10 nM	100 ± 10 nM	O=C(NCC1CCCCC1)Nc1cccc(Cl)c1 [compound 179]	–
50 ± 10 nM	580 ± 30 nM	O=C(NCCCCc1ccccc1)NC1CCCCC1 [compound 105]	–
450 ± 90 nM	100 ± 20 nM	O=C(NC1CCCCC1)OCc1ccc(-c2ccccc2)cc1 [compound 259]	–
700 ± 100 nM	17800 ± 700 nM	O=C(NCCCN1CCOCC1)NC1CCCCC1 [compound 377]	–
390 ± 20 nM	3770 ± 30 nM	CCOC(CCCNC(=O)Nc1cccc(Cl)c1)OCC [compound 167]	–
200 ± 20 nM	740 ± 70 nM	CCCCCCCCCCCNC(=O)NCCCC [compound 556]	–
60 ± 10 nM	130 ± 10 nM	O=C(NCC1CCCCC1)Nc1ccc2ccccc2c1 [compound 169]	–
50 ± 10 nM	100 ± 10 nM	O=C(NCCC1CCCCC1)NC1CCCCC1 [compound 360]	–
–	–	OC(c1ccccc1)C1OC1c1ccc(-c2ccccc2)cc1 (racemic) [R=4-C6H5—C6H4, R′=C6H5, X—Y=CH—OH, ±]	IC50 ([3]; Table 2): 510 ± 40 nM; IC50 (Human sEH (HsEH); Table 2): 720 ± 30 nM
250 ± 10 nM	2030 ± 70 nM	O=C(NCC1CCCCC1)C1CCCCC1 [compound 374]	–
210 ± 10 nM	610 ± 20 nM	CCCCCCCCCCNC(=O)Nc1ccccc1 [compound 148]	–
